We go through 18 compounds from US11964973B2 (priority 2019, dated 2024).

Read-outs that look alike come from different tables or passages of the source.

The subject of assay [1] is OT-1 CD8+ T cells with SIINFEKL-loaded MC38 tumor cells. Description: Murine cytotoxic T lymphocyte assay (IFN-γ). Format: cell-based, mouse. Conditions: Mus musculus, MC-38; murine cytotoxic T lymphocyte assay; read-out: msCTL. A digest of the protocol: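 OT-1 CD8+ T cells, expanded 5 days with OVA peptide and mIL2, pretreated 1 h with DGK inhibitor, then cocultured overnight at 37 °C with peptide-pulsed MC38 cells (1:10 ratio). IFN-γ in supernatant measured after 24 h by AlphaLisa.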

Assay [2] has as its system naïve human CD8 T cells (IFN-γ). Description: Human CD8 T cells IFN-γ assay. The format is cell-based. Conditions: T-cell. As to the method:
Assay 8: Human CD8 T Cells IFN-γ Assay
Frozen naïve human CD8 T cells were thawed in AIM-V media, incubated for 2 h in 37° C., and counted. The 384-well tissue culture plate was coated overnight at 4° C. with 20 μL anti-human CD3 at 0.05 μg/mL in PBS, which was removed off the plate before 40,000 cells per 40 microliters CD8 T cells with 0.1 μg/mL soluble anti-human CD28 were added to each well. The compounds were transferred using an Echo liquid handler to the cell plate immediately after the cells were plated. After 20 h incubation at 37° C. incubator, 3 microliters per well supernatants transferred into a new 384-well white assay plate for cytokine measurement.
Interferon-γ (IFN-γ) was quantitated using the AlphLISA kit (Cat #AL217) as described by the manufacturer manual (Perkin Elmer). The counts from each well were converted to IFN-γ concentration (pg/mL).

Assay [3] concerns Human venous whole blood (IFN-γ). Description: Human whole blood IFN-γ assay. Format: cell-based. The procedure: Assay 10: Human Whole Blood IFN-γ Assay
Human venous whole blood (22.5 μL per well), obtained from healthy donors, was pre-treated with compounds for one hour at 37° C. in a humidified 95% air/5% CO2 incubator. The blood was stimulated with 2.5 μL anti-human CD3 and anti-CD28 mAb at a final concentration of 1 μg/mL each for 24 hours at 37° C. IFN-γ in the supernatants was measured using AlphLISA kit (Cat #AL217).

Assay [4] deals with Human DGKα(9-727) (Homo sapiens (Human), UniProt P23743). Description: biochemical. To be noted: liposome (LIPGLO) assay; Table A; read-out: DGKα LIPGLO IC50.
In assay [5] the target is full length human DGKζ (Homo sapiens (Human), UniProt Q13574). Description: In vitro DGK inhibition assay, Method B (DGKζ LIPGLO, extruded liposomes). The format is biochemical. To be noted: liposome (LIPGLO) assay; read-out: DGKζ LIPGLO IC50.
Assay [6] deals with human venous whole blood, CD8 positive population (pERK). As to the kind of experiment: DGK human whole blood pERK assay. Format: cell-based. A digest of the protocol: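 Read-out is the pERK-positive fraction of CD8+ cells measured by flow cytometry. Donor venous blood (heparin) saw compound for one hour at 37° C before a 15-minute anti-CD3 challenge (1 μg/mL final) with cross-linking anti-mouse IgG.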

In assay [7] the target is DGKα (Homo sapiens (Human), UniProt P23743). Description: biochemical. The format is biochemical. To be noted: liposome (LIPGLO) assay; read-out: DGKα LIPGLO IC50.
The target of assay [8] is human DGKζ (Homo sapiens (Human), UniProt Q13574). Description: biochemical. Format: biochemical. Conditions: liposome (LIPGLO) assay; read-out: DGKζ LIPGLO IC50.
The mark [9] stands for this setting: Homo sapiens, human whole blood IFN-γ, read-out: INFg Whole Blood.
Setting [10] is: read-out: DGK HWB (human whole blood pERK); human whole blood, CD8 positive population, anti-CD3 stimulation; top concentration 20 μM.
Where [11] appears, read: human whole blood, CD8 positive population, anti-CD3 stimulation; top concentration 20 μM; read-out: DGK HWB (human whole blood pERK).
Setting [12] is: read-out: HuCD8 INFG Normalized EC50.
The mark [13] stands for this setting: human whole blood, anti-CD3 plus anti-CD28, 24 hours, read-out: INFg Whole Blood Normalized Agonist EC50.
The mark [14] stands for this setting: Homo sapiens, CD8 positive, human whole blood, CD8 positive population, anti-CD3 stimulation; top concentration 20 μM; read-out: DGK HWB (human whole blood pERK).

Chain of full length human DGKζ (Q13574 whole entry, looked up): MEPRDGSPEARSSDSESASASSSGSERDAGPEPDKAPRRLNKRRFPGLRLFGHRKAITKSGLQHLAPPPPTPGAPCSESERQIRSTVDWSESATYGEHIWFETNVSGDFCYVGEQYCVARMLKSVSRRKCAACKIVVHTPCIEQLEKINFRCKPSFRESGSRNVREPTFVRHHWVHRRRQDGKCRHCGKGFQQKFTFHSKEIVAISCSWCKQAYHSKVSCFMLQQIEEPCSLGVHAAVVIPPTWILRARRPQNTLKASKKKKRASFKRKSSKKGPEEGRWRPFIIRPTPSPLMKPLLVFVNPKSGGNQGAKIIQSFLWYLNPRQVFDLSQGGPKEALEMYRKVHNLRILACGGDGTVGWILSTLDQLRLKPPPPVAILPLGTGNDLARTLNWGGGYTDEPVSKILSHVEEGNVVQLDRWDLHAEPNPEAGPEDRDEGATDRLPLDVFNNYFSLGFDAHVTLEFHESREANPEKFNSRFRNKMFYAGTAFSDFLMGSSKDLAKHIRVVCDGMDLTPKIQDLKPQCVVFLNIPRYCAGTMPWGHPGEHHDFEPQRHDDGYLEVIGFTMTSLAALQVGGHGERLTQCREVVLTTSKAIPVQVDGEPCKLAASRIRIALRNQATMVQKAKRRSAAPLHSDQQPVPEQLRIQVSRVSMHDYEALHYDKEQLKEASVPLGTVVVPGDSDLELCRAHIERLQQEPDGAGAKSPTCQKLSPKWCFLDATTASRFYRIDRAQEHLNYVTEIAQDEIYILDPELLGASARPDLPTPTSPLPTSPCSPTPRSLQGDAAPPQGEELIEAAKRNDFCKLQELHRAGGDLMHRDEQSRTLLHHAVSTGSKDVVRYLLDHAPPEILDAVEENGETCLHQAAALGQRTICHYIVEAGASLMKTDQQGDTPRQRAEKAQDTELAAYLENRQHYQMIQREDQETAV
Chain of Human DGKα(9-727) (P23743 whole entry, looked up): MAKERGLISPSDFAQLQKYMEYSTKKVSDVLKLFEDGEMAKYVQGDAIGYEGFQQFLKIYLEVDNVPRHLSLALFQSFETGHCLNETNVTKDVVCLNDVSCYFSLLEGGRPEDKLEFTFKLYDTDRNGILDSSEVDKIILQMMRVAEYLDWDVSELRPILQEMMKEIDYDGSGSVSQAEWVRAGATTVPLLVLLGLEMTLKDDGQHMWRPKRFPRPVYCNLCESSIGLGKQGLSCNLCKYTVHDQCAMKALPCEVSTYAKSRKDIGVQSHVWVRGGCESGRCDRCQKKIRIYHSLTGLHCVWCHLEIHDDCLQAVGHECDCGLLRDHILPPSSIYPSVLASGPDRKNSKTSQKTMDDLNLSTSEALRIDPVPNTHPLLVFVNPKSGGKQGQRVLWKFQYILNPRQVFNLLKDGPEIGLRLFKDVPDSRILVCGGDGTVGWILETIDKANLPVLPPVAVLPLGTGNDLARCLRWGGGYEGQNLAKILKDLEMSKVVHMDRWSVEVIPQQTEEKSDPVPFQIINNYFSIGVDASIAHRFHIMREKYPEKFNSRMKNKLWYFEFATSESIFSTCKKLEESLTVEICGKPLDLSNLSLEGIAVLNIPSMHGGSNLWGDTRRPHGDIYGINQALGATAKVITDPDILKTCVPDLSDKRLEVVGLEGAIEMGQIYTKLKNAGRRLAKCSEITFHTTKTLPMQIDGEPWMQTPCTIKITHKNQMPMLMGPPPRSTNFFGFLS
Chain of DGKα (P23743 whole entry, looked up): as above
Chain of human DGKζ (Q13574 whole entry, looked up): as the sequence (Q13574 whole entry, looked up) above

As for `Cn1c(=O)c(F)c(N2CCC(Oc3ccc(OC(F)(F)F)cc3)CC2)c2nc(C#N)ccc21` [Example 237, 7-fluoro-5-methyl-6-oxo-8-(4-(4-(trifluoromethoxy)phenoxy)piperidin-1-yl)-5,6-dihydro-1,5-naphthyridine-2-carbonitrile], the EC50 in assay [1] worked out at 0.2 µM; in assay [2] (read-out: HuCD8 INFG), 0.34 µM; in assay [3] (setting [9]), 3.3 µM.
`Cn1c(=O)cc(N2CC[C@@H](Oc3cccc(C(F)(F)F)c3)[C@H](OCC(F)(F)F)C2)c2nc(C#N)ccc21` [Example 393, 5-methyl-6-oxo-8-((3R,4R)-3-(2,2,2-trifluoroethoxy)-4-(3-(trifluoromethyl)phenoxy)piperidin-1-yl)-5,6-dihydro-1,5-naphthyridine-2-carbonitrile]: the figures for the IC50 in assay [4] and in assay [5] were 1.1 µM and 0.38 µM, respectively. The EC50 in assay [6] (setting [10]) turned out to be 0.68 µM.
As to `Cn1c(=O)c(Cl)c(N2CCC(Oc3ccc(OC(F)(F)F)cc3)CC2)c2nc(C#N)ccc21` [Example 238, 7-chloro-5-methyl-6-oxo-8-(4-(4-(trifluoromethoxy)phenoxy)piperidin-1-yl)-5,6-dihydro-1,5-naphthyridine-2-carbonitrile], the EC50 in assay [2] (read-out: HuCD8 INFG) was determined as 0.16 µM.
`CCO[C@H]1CN(c2cc(=O)n(C)c3ccc(C#N)nc23)CC[C@@H]1Oc1ncc(OC(C)C)cn1` [Example 379, 8-((3S,4S)-3-ethoxy-4-((5-isopropoxypyrimidin-2-yl)oxy)piperidin-1-yl)-5-methyl-6-oxo-5,6-dihydro-1,5-naphthyridine-2-carbonitrile]: the IC50 (as a rule, the concentration needed to halve the response being measured) in assay [4] stood at 0.58 µM; in assay [5], 3.1 µM. Moreover, in assay [6] (setting [11]), the EC50 worked out at 7 µM.
For `CCO[C@H]1CN(c2cc(=O)n(C)c3ccc(C#N)nc23)CC[C@@H]1Oc1cnc(OC(C)C)cn1` [Example 377, 8-((3S,4S)-3-ethoxy-4-((5-isopropoxypyrazin-2-yl)oxy)piperidin-1-yl)-5-methyl-6-oxo-5,6-dihydro-1,5-naphthyridine-2-carbonitrile], the figures for the IC50 in assay [4] and in assay [5] were 0.13 µM and 0.075 µM, respectively. Moreover, the EC50 in assay [6] (setting [11]) came out at 0.45 µM.
With `CCO[C@H]1CN(c2nc(=O)n(C)c3ccc(C#N)nc23)CC[C@@H]1Oc1ccccc1` (relative stereo) [Example 402, trans-4-(3-Ethoxy-4-phenoxypiperidin-1-yl)-1-methyl-2-oxo-1,2-dihydropyrido[3,2-d] pyrimidine-6-carbonitrile], the half-maximal inhibitory concentration (IC50) came to 2.1 µM in assay [4] and 0.9 µM in assay [5]. Besides, the EC50 in assay [6] (setting [10]) amounted to 2.8 µM.
`COc1ccc(-c2c(N3CCC(Oc4ccc(OC(F)(F)F)cc4)CC3)c3nc(C#N)ccc3n(C)c2=O)cn1` [Example 240, 7-(6-methoxypyridin-3-yl)-5-methyl-6-oxo-8-(4-(4-(trifluoromethoxy)phenoxy)piperidin-1-yl)-5,6-dihydro-1,5-naphthyridine-2-carbonitrile]: the EC50 in assay [1] was found to be 0.58 µM; in assay [2] (read-out: HuCD8 INFG), 1 µM; in assay [3] (setting [9]) it was 5.3 µM.
Regarding `CCO[C@H]1CN(c2cc(=O)n(C)c3ccc(C#N)nc23)CC[C@@H]1Oc1cnc(OC(C)C)cn1` [Example 378, 8-((3S,4S)-3-ethoxy-4-((5-isopropoxypyrazin-2-yl)oxy)piperidin-1-yl)-5-methyl-6-oxo-5,6-dihydro-1,5-naphthyridine-2-carbonitrile], the IC50 in assay [4] turned out to be 7.7 µM; in assay [5] it was 5.2 µM. In assay [6] (setting [11]), the EC50 came to 10 µM.
For `CCO[C@H]1CN(c2cc(=O)n(C)c3ccc(C#N)nc23)CC[C@@H]1Oc1ncc(OC(C)C)cn1` [Example 380, 8-((3S,4S)-3-ethoxy-4-((5-isopropoxypyrimidin-2-yl)oxy)piperidin-1-yl)-5-methyl-6-oxo-5,6-dihydro-1,5-naphthyridine-2-carbonitrile] the same measures were 1.3 µM, 14 µM and 20 µM.
Regarding `Cn1c(=O)cc(N2CC[C@@H](Oc3cccc(C(F)(F)F)c3)[C@H](OCCN3CCOCC3)C2)c2nc(C#N)ccc21` [Example 392, 5-methyl-8-((3R,4R)-3-(2-morpholinoethoxy)-4-(3-(trifluoromethyl)phenoxy)piperidin-1-yl)-6-oxo-5,6-dihydro-1,5-naphthyridine-2-carbonitrile], the IC50 in assay [4] is 42 µM; in assay [5], 24 µM. The EC50 in assay [6] (setting [10]) is 13 µM.
On to `Cn1c(=O)cc(N2CC[C@@H](Oc3cccc(C(F)(F)F)c3)[C@H](OCC3CC3)C2)c2nc(C#N)ccc21` [Example 387, 8-((3R,4R)-3-(cyclopropylmethoxy)-4-(3-(trifluoromethyl)phenoxy)piperidin-1-yl)-5-methyl-6-oxo-5,6-dihydro-1,5-naphthyridine-2-carbonitrile], for which the figures for the half-inhibitory concentration (IC50) in assay [4] and in assay [5] were 2.1 µM and 0.097 µM, respectively. Moreover, in assay [6] (setting [11]), the EC50 was 0.65 µM.
Consider `C[C@@H]1CN(c2cc(=O)n(C)c3ccc(C#N)nc23)CC[C@H]1Oc1ccc(OC(C)(C)C)cc1` [Example 85, 8-((3R,4R)-4-(4-(tert-butoxy)phenoxy)-3-methylpiperidin-1-yl)-5-methyl-6-oxo-5,6-dihydro-1,5-naphthyridine-2-carbonitrile], for which the IC50 in assay [7] is 0.08 µM. Besides, the results for the EC50 in assay [2] (setting [12]) and in assay [3] (setting [13]) were 0.61 µM and 2.2 µM, respectively.
With `CCO[C@H]1CN(c2nc(=O)n(C)c3ccc(C#N)nc23)CC[C@@H]1Oc1ccccc1` (relative stereo) [Example 403, trans-4-(3-Ethoxy-4-phenoxypiperidin-1-yl)-1-methyl-2-oxo-1,2-dihydropyrido[3,2-d] pyrimidine-6-carbonitrile], the IC50 in assay [4] turned out to be 19 µM; in assay [5], 5.3 µM. In addition, in assay [6] (setting [10]), the EC50 is 11 µM.
Turning to `CN(C)CCO[C@@H]1CN(c2cc(=O)n(C)c3ccc(C#N)nc23)CC[C@H]1Oc1cccc(C(F)(F)F)c1` [Example 386, 8-((3R,4R)-3-(2-(dimethylamino)ethoxy)-4-(3-(trifluoromethyl)phenoxy)piperidin-1-yl)-5-methyl-6-oxo-5,6-dihydro-1,5-naphthyridine-2-carbonitrile], the IC50 in assay [4] was found to be 130 µM; in assay [5] it was 42 µM. Further, the EC50 in assay [6] (setting [14]) was 20 µM.
The corresponding values for `CCO[C@H]1CN(c2cc(=O)n(C)c3ccc(C#N)nc23)CC[C@@H]1OCc1cccc(C(F)(F)F)c1` [Example 381, 8-((3S,4S)-3-ethoxy-4-((3-(trifluoromethyl)benzyl)oxy)piperidin-1-yl)-5-methyl-6-oxo-5,6-dihydro-1,5-naphthyridine-2-carbonitrile] are 0.31 µM, 7.4 µM and 0.24 µM.
In the case of `CCC(C)(C)c1ccc(O[C@@H]2CCN(c3cc(=O)n(C)c4ccc(C#N)nc34)C[C@H]2C)cc1` (single isomer, unassigned) [Example 83], the IC50 in assay [7] came to 0.28 µM; in assay [8], 5.8 µM. For the same compound, the EC50 came out at 0.0025 µM in assay [2] (setting [12]) and 0.36 µM in assay [3] (setting [13]).
On to `CC(C)O[C@@H]1CN(c2cc(=O)n(C)c3ccc(C#N)nc23)CC[C@H]1Oc1cccc(C(F)(F)F)c1` (relative stereo) [Example 396, trans-8-(3-Isopropoxy-4-(3-(trifluoromethyl)phenoxy)piperidin-1-yl)-5-methyl-6-oxo-5,6-dihydro-1,5-naphthyridine-2-carbonitrile], for which the IC50 in assay [4] came out at 38 µM; in assay [5], 3.6 µM. The EC50 in assay [6] (setting [11]) is 14 µM.
Consider `Cn1c(=O)c(Br)c(N2CCC(Oc3ccc(OC(F)(F)F)cc3)CC2)c2nc(C#N)ccc21` [Example 239, 7-bromo-5-methyl-6-oxo-8-(4-(4-(trifluoromethoxy)phenoxy)piperidin-1-yl)-5,6-dihydro-1,5-naphthyridine-2-carbonitrile], for which the EC50 in assay [2] (read-out: HuCD8 INFG) turned out to be 0.82 µM.
